Measurements reported in paper PMC11116414, “Impact of secretin receptor homo-dimerization on natural ligand binding” (Nature Communications, 2024).
No end group written: not given here.

Tested on: cysteine-containing SecR(G264A,I268A) constructs
Assay: Cysteine trapping with SecR(G264A,I268A) cysteine constructs, intact COS-1 cells
Format: binding, human
Conditions: for Intraloop labeling / Overall labeling: mean ± S.E.M.; for cysteine trapping in ECL3, in words: WT (earlier work) and non-dimerizing SecR
Protocol: In short, 15 µg of each peptide were incubated with 1 mCi of Na^125I for 15 s in borate buffer (pH 9.0) using solid-state N-chlorobenzene sulfonamide (iodination beads), and radioactive peptide products were separated and purified using reversed-phase HPLC, to yield a mono-iodinated peak with a specific radioactivity of 2000 Ci/mmol.
Modified secretin receptor constructs were prepared by mutagenesis of human SecR(G264A,I268A) by introducing cysteine residues to replace each natural residue in the N-terminal stalk region, (extracellular loop 1) ECL1, ECL2, and ECL3 regions of the receptor[21]. Mutagenesis was performed using the QuikChange site-directed mutagenesis kit from Stratagene (La Jolla, CA), with the products verified by direct DNA sequencing.
Cysteine trapping is a technique in which cysteine residues incorporated into distinct positions within a peptide ligand and within its receptor are allowed to form disulfide bonds when two free cysteines are in proximity to each other with necessary distance and geometry. As noted above, this was performed with secretin peptides incorporating cysteines in positions 2, 5, 6 and 7[20],[21], and with a series of SecR mutants incorporating cysteines in all extracellular domains (75 distinct constructs in a TM4 mutant non-dimerizing SecR background). COS-1 cells were grown to approximate 85% confluence in 24-well tissue culture plates, and transfected with cysteine mutant receptor constructs using the PEI method. Assays were started by washing the cells with DMEM containing 5% Fetal Clone II before being incubated with 200 μl radiolabeled cysteine-containing probes (approximately 100,000 cpm per well) for 1.5 h at room temperature. The assays were terminated by washing the cells with ice-cold PBS, pH 7.4, and mixing with 60 µl SDS Laemmli sample buffer not containing dithiothreitol (DTT). Lysates were run on 10% SDS-polyacrylamide gels. Gels were then dried, and bands of interest were visualized by autoradiography, and specific bands were identified, and intensities quantified using ImageJ. Sites having labeling above background were determined using one-way ANOVA with Dunnett’s post-test, with P < 0.001 considered to be significant. The apparent molecular weights of the receptor bands were determined by interpolation with the mobility of the appropriate ProSieve protein markers.

[1] = A292C, ECL2, n = 3-5, Cys5 significant (P < 0.0001)
[2] = F279C, ECL2, % of highest-labeled residue across all constructs, n = 4 (Cys2), 5 (Cys5, Cys6), 3 (Cys7)
[3] = L374C, ECL3, n = 3-5, Cys5, Cys6, Cys7 significant (P < 0.001)
[4] = M366C, ECL3, n = 3-5, Cys5 significant (P < 0.0001)
[5] = W296C, ECL2, n = 3-5, Cys6 significant (P = 0.0003)

## Cys^6-[Tyr^10]secretin(1-27) (HSDGTCTSEYSRLREGARLQRLLQGLV; not fully specified; ends and bridges not checked; also: radioiodinated; UniProt P09683 28-54, looked up, variant F6C L10Y) [Cys^6-Sec, cysteine-containing secretin agonist probe, radioiodinated for cysteine trapping]
A292C, ECL2, n = 3-5
  Intraloop labeling: 29.1 ±17.0 percentage
[1]
  Overall labeling: 24.9±17.2 percentage
D282C, ECL2, n = 3-5
  Intraloop labeling: < 1 percentage
  Overall labeling: < 1 percentage
D364C, ECL3, n = 3-5
  Intraloop labeling: 17.1±8.2 percentage
D364C, ECL3, n = 3-5, Cys5 significant (P < 0.0001)
  Overall labeling: 16.2±8.4 percentage
E367C, ECL3, n = 3-5
  Intraloop labeling: 40.8±17.2 percentage
  Overall labeling: 35.5±14.9 percentage
E373C, ECL3, n = 3-5
  Intraloop labeling: 19.9±17.3 percentage
  Overall labeling: 13.9±11.4 percentage
[2]
  Overall labeling: < 1 percentage
F358C, ECL3, n = 3-5
  Intraloop labeling: 16.4±12.8 percentage
  Overall labeling: 10.2±6.9 percentage
F371C, ECL3, n = 3-5
  Intraloop labeling: 11.4±11.0 percentage
F372C, ECL3, n = 3-5
  Intraloop labeling: 19.0±15.7 percentage
  Overall labeling: 13.6±10.3 percentage
G284C, ECL2, n = 3-5
  Overall labeling: < 1 percentage
I294C, ECL2, n = 3-5
  Intraloop labeling: 10.5±9.5 percentage
  Overall labeling: 10.3±9.5 percentage
I297C, ECL2, n = 3-5
  Intraloop labeling: 30.1±18.4 percentage
L374C, ECL3, n = 3-5
  Intraloop labeling: 94.8±5.2 percentage
[3]
  Overall labeling: 78.8±9.2 percentage
M366C, ECL3, n = 3-5
  Intraloop labeling: 56.2±16.4 percentage
[4]
  Overall labeling: 48.0±17.7 percentage
N289C, ECL2, n = 3-5
  Intraloop labeling: 15.8±14.5 percentage
  Overall labeling: 15.7±14.5 percentage
N291C, ECL2, n = 3-5
  Intraloop labeling: < 1 percentage
  Overall labeling: < 1 percentage
Q369C, ECL3, n = 3-5
  Intraloop labeling: 13.0±12.7 percentage
V283C, ECL2, n = 3-5
  Intraloop labeling: 15.8±13.9 percentage
  Overall labeling: 15.5±13.9 percentage
W286C, ECL2, n = 3-5
  Intraloop labeling: 24.4±19.3 percentage
  Overall labeling: 13.4±8.9 percentage
W295C, ECL2, n = 3-5
  Intraloop labeling: 34.2±0.1 percentage
W295C, ECL2, n = 3-5, Cys2, Cys5, Cys7 significant (P < 0.0001)
  Overall labeling: 34.1±17.2 percentage
W296C, ECL2, n = 3-5
  Intraloop labeling: 80.2±19.8 percentage
[5]
  Overall labeling: 68.0±20.5 percentage
  cysteine trapping in ECL3, in words: labeled ECL3 residues

## Cys^7-[Tyr^10]secretin(1-27) (HSDGTFCSEYSRLREGARLQRLLQGLV; not fully specified; ends and bridges not checked; also: radioiodinated; UniProt P09683 28-54, looked up, variant T7C L10Y) [Cys^7-Sec, cysteine-containing secretin agonist probe, radioiodinated for cysteine trapping]
A290C, ECL2, n = 3-5
  Intraloop labeling: < 1 percentage
  Overall labeling: < 1 percentage
A292C, ECL2, n = 3-5
  Intraloop labeling: < 1 percentage
[1]
  Overall labeling: < 1 percentage
A359C, ECL3, n = 3-5
  Intraloop labeling: 85.3±8.6 percentage
A359C, ECL3, n = 3-5, Cys7 significant (P = 0.0004)
  Overall labeling: 85.3±8.6 percentage
A365C, ECL3, n = 3-5
  Intraloop labeling: 66.4±17.1 percentage
A365C, ECL3, n = 3-5, Cys5 significant (P < 0.0001)
  Overall labeling: 66.4±17.1 percentage
D282C, ECL2, n = 3-5
  Intraloop labeling: < 1 percentage
  Overall labeling: < 1 percentage
D287C, ECL2, n = 3-5
  Intraloop labeling: 15.7±15.6 percentage
E363C, ECL3, n = 3-5
  Intraloop labeling: < 1 percentage
  Overall labeling: < 1 percentage
E367C, ECL3, n = 3-5
  Intraloop labeling: < 1 percentage
  Overall labeling: < 1 percentage
E373C, ECL3, n = 3-5
  Intraloop labeling: < 1 percentage
  Overall labeling: < 1 percentage
F279C, ECL2, % of highest labeling within loop, n = 4 (Cys2), 5 (Cys5, Cys6), 3 (Cys7)
  Intraloop labeling: < 1 percentage
[2]
  Overall labeling: < 1 percentage
F358C, ECL3, n = 3-5
  Intraloop labeling: 21.6±20.7 percentage
  Overall labeling: 21.6±20.7 percentage
F360C, ECL3, n = 3-5
  Intraloop labeling: 23.9±23.4 percentage
  Overall labeling: 23.9±23.4 percentage
F372C, ECL3, n = 3-5
  Intraloop labeling: 24.8±24.7 percentage
  Overall labeling: 24.8±24.7 percentage
G284C, ECL2, n = 3-5
  Intraloop labeling: < 1 percentage
  Overall labeling: < 1 percentage
I288C, ECL2, n = 3-5
  Intraloop labeling: 82.9±8.6 percentage
I288C, ECL2, n = 3-5, Cys5 and Cys7 significant (P < 0.0001)
  Overall labeling: 71.4±10.6 percentage
I294C, ECL2, n = 3-5
  Intraloop labeling: < 1 percentage
  Overall labeling: < 1 percentage
I297C, ECL2, n = 3-5
  Intraloop labeling: < 1 percentage
  Overall labeling: < 1 percentage
I368C, ECL3, n = 3-5
  Intraloop labeling: < 1 percentage
  Overall labeling: < 1 percentage
L280C, ECL2, n = 3-5
  Intraloop labeling: < 1 percentage
  Overall labeling: < 1 percentage
L374C, ECL3, n = 3-5
  Intraloop labeling: 88.6±11.4 percentage
[3]
  Overall labeling: 88.6±11.4 percentage
M366C, ECL3, n = 3-5
  Intraloop labeling: 55.6±22.3 percentage
[4]
  Overall labeling: 55.6±22.3 percentage
N291C, ECL2, n = 3-5
  Intraloop labeling: < 1 percentage
  Overall labeling: < 1 percentage
P362C, ECL3, n = 3-5
  Intraloop labeling: < 1 percentage
  Overall labeling: < 1 percentage
Q369C, ECL3, n = 3-5
  Intraloop labeling: < 1 percentage
  Overall labeling: < 1 percentage
S293C, ECL2, n = 3-5
  Intraloop labeling: < 1 percentage
  Overall labeling: < 1 percentage
S361C, ECL3, n = 3-5
  Intraloop labeling: < 1 percentage
  Overall labeling: < 1 percentage
V283C, ECL2, n = 3-5
  Intraloop labeling: < 1 percentage
  Overall labeling: < 1 percentage
W286C, ECL2, n = 3-5
  Overall labeling: < 1 percentage
W295C, ECL2, n = 3-5
  Intraloop labeling: 92.5±7.5 percentage
W296C, ECL2, n = 3-5
  Intraloop labeling: < 1 percentage
[5]
  Overall labeling: < 1 percentage
  cysteine trapping in ECL3, in words: labeled ECL3 residues
